Structures can show the parent of a compound that is named as a salt.
Columns and labels:
[1] = tested on: SARS-CoV2 infected Vero-E6 cells and human lung epithelial cells (Calu-3); format: cell-based; set-up: inhibiting cytopathic effect (% of cells): dose or concentration left out as unconfirmed; details: for synergy with remdesivir (BLISS independence model, synergyfinder): in combination with remdesivir, synergy score >10 signifies synergy; for efficacy of the agent alone, in words: single agent
[2] = tested on: SARS-CoV2 in Calu-3 cells; format: cell-based

Compound | synergy in combination with remdesivir [2] | further results
Elbasvir | – | synergy with remdesivir (BLISS independence model, synergyfinder) [1]: synergistic
COC(=O)N[C@H](C(=O)N1CC2(CC2)C[C@H]1c1ncc(-c2ccc3c(c2)C(F)(F)c2cc(-c4ccc5nc(C6[C@H]7CC[C@H](C7)N6C(=O)[C@@H](NC(=O)OC)C(C)C)[nH]c5c4)ccc2-3)[nH]1)C(C)C (stereo partly drawn) [Ledipasvir acetone] | synergy | –
CCC(CC)COC(=O)[C@H](C)N[P@](=O)(OC[C@H]1O[C@@](C#N)(c2ccc3c(N)ncnn23)[C@H](O)[C@@H]1O)Oc1ccccc1 [remdesivir] | – | preventing a virus-caused pathology (% of cells) ([1]; 300 nM remdesivir alone): 7%; efficacy of the agent alone, in words [1]: only active at high uM concentrations
COC[C@H]1C[C@@H](c2nc(-c3ccc4c(c3)COc3cc5c(ccc6nc([C@@H]7CC[C@H](C)N7C(=O)[C@@H](NC(=O)OC)C(C)C)[nH]c65)cc3-4)c[nH]2)N(C(=O)[C@H](NC(=O)OC)c2ccccc2)C1 [Velpatasvir] | – | synergy with remdesivir (BLISS independence model, synergyfinder) [1]: strongest; efficacy of the agent alone, in words [1]: modest efficacy; inhibiting cytopathic effect (% of cells) ([1]; velpatasvir alone (so in the source)): 16%
COc1c(C)c2c(c(O)c1C/C=C(\C)CCC(=O)O)C(=O)OC2 [Mycophenolic acid] | synergy | –
COC(=O)N[C@H](C(=O)N1CCC[C@H]1c1nc2cc([C@H]3CC[C@H](c4cc5nc([C@@H]6CCCN6C(=O)[C@@H](NC(=O)OC)[C@@H](C)OC)[nH]c5cc4F)N3c3cc(F)c(N4CCC(c5ccc(F)cc5)CC4)c(F)c3)c(F)cc2[nH]1)[C@@H](C)OC [Pibrentasvir] | synergy | –
COC(=O)N[C@H](C(=O)N1CC2(CC2)C[C@H]1c1ncc(-c2ccc3c(c2)C(F)(F)c2cc(-c4ccc5nc([C@@H]6[C@H]7CC[C@H](C7)N6C(=O)[C@@H](NC(=O)OC)C(C)C)[nH]c5c4)ccc2-3)[nH]1)C(C)C [Ledipasvir] | synergy | –
COC(=O)N[C@H](C(=O)N1CCC[C@H]1C(=O)Nc1ccc([C@@H]2CC[C@@H](c3ccc(NC(=O)[C@@H]4CCCN4C(=O)[C@@H](NC(=O)OC)C(C)C)cc3)N2c2ccc(C(C)(C)C)cc2)cc1)C(C)C [Ombitasvir] | synergy | –
COC(=O)N[C@H](C(=O)N1CCC[C@H]1c1ncc(-c2ccc(-c3ccc(-c4cnc([C@@H]5CCCN5C(=O)[C@@H](NC(=O)OC)C(C)C)[nH]4)cc3)cc2)[nH]1)C(C)C [Daclatasvir dihydrochloride] | synergy | –
